One assay has as its system A. gambiae sensu lato. Briefly: Feeding proportion experiments (90 s on membrane feeder). The assay is classed as in vivo. The protocol: Mosquitoes used in this study were from the laboratory colony of A. gambiae sensu lato (Keele line, University of Glasgow), which was produced by balanced interbreeding of four A. gambiae s.s. strains (H. Hurd, et al. Evolution, 59, 2560-2572 (2005)). Larvae were reared under standard insectary conditions (27±1° C., 70% humidity, 12 h light: 12 h dark cycle) and fed on TetraMin fish flakes (Tetra ltd., Germany). Pupae were transferred into holding cages for emergence. Emerged adults were fed ad libitum on 5% glucose solution, supplemented with 0.05% (w/v) 4-aminobenzoic acid (PABA, Sigma-Aldrich), through soaked filters on top of the 2 ml tubes and with soaked filter pads inside cages. Red blood cells (RBCs) were washed with Roswell Park Memorial Institute (RPMI) medium and stored in RPMI at 50% haematocrit at 4° C. until use. […]
Fifty mosquitoes were isolated in three separate cages (8 cm internal diameter×10 cm in height) covered with netting, and fed on 1 ml of control RBCs, hRBCs or giRBCs, respectively. […] For each group, the number of fully fed mosquitoes compared to unfed controls was immediately recorded. In another set of feeding experiments, serum or a 0.9% physiological saline solution (NaCl, pH 7.4), either with or without 10 μM HMBPP, were offered to mosquitoes during a 5 min feeding window, and the number of fed mosquitoes recorded every minute for each cage separately. […]

The subject of a further assay is RBCs. Briefly: CO2 production of RBCs (GC-MS and quantitative respirometry, IRGA). The assay is classed as cell-based, Human. As to conditions: 10 μM HMBPP, FIG. 2B. The protocol: RBCs (1 ml) were transferred to 4 ml glass vials closed with auto-sampler screw caps, and equilibrated in a thermostat at 38° C. for 15 min. Then, 2.5 μl of HMBPP or Nanopure water were added to the RBCs samples (final concentration: 10 μM HMBPP per sample). Volatiles were collected from the headspace using solid phase micro-extraction (SPME; Supelco, Bellmonte, Pa., USA) (M. J. Yang, el al., J. Chem. Educ., 74, 1130-1132 (1997) and A. K. Borg-Karlson and R. Mozuraitis, Naturforsch., C. 51, 599-602 (1996)). […] Electron ionisation mass spectra were determined at 70 eV with the ion source kept at 230° C. and mass spectra were obtained at mass to charge ratio (m/z) 29-400. […] A similar protocol was used for the quantification of CO2, with the mass spectral data and GC retention times being compared with emission from frozen CO2. The relative amounts of CO2 in arbitrary units were determined from the areas of the respective chromatogram peaks using single ion display mode at m/z 44±0.5 Da. The amounts of identified compounds were quantified by the use of extracted ion chromatograms, since they are very minute. […] The estimations were based on the very same quantifications given in ‘arbitrary area units’. […]

Data on one molecule can be found in patent publication US11638424B2, “Mosquito attractant formulations and uses thereof” (priority 2017, dated 2023).

On to `C/C(=C\COP(=O)(O)OP(=O)(O)O)CO` [HMBPP, (E)-4-hydroxy-3-methyl-but-2-enyl pyrophosphate], for which, in the assay on A. gambiae sensu lato (RBCs supplemented with different concentrations of HMBPP, below 10 μM), the “proportion of mosquitoes feeding over a range of HMBPP concentrations” value is given as “substantially lower doses are sufficient to trigger enhanced mosquito feeding”. Further, in the assay with A. gambiae sensu lato (hRBCs (10 μM HMBPP) vs RBCs, 90 s feeding, FIG. 1B), the “proportion of females fed” value was “more than doubled”. Besides, in the assay on RBCs, the “increase of the amount of CO2 released into the gas headspace above hRBC suspensions compared to RBCs alone” value is 16%.
